Measured values from patent US20020165237A1, “Treatment of the insulin resistance syndrome” (priority 2000, published 2002).

Key:
ob/ob mice [1] = test: Plasma glucose, cGMP and triglyceride levels in ob/ob mice, oral gavage, 5 day study; format: in vivo; conditions: mean ± SEM; for Changes in Plasma Glucose Concentrations: over 5 day period; for Plasma Triglyceride Level: day 5, 3 hours after dose
Method: (§1) The selective PDE5 inhibitor compounds to be tested were solubilized in 10% DMSO/0.1% pluronics and dosed via oral gavage using mouse oral feeding needles (20 gauge, Popper & Sons, Inc., New Hyde Park, N.Y.). A volume of 4 ml/kg weight was administered for each dose. Compounds were tested at doses ranging from 1-50 mg/kg. Alternatively, the test selective PDE5 inhibitor compound was administered in the drinking water and found to produce similar reductions in plasma glucose and triglycerides to the reductions observed for the same compound when administered by oral gavage.
(§2) Male ob/ob mice obtained from Jackson Laboratories (Bar Harbor, ME) were used in the studies at 6 to 10 weeks of age. Mice were housed five per cage and allowed free access to D11 mouse chow (Purina, Brentwood, Mo.) and water.
(§3) Mice were allowed to acclimate to the Pfizer animal facilities for 1 week prior to the start of the study. On day one, retro-orbital blood samples were obtained and plasma glucose was determined as described hereinafter. […] On day one, mice were dosed with vehicle or a test selective PDE5 inhibitor compound only in the afternoon. Subsequently, mice were dosed twice a day on day 2-4 in the morning and in the afternoon. On day 5, the mice received an a.m. dose and bled 3 hours later for plasma preparation for glucose and triglyceride analysis as described below. Alternatively, test selective PDE5 inhibitor compound was administered in the drinking water commencing on the afternoon of day 1 and continuing through day 5, when mice were then bled for plasma preparation for glucose and triglyceride analysis as described below. Terminal plasma samples were collected on day 5 following the retro-orbital sinus bleed as described below. Body weight was measured on days 1 and 5 of the study, and food consumption was assessed over the 5 day period.
(§4) On the morning of the last day of the study mice were dosed with test compound or vehicle at approximately 8:00 am. Three hours after dosing, 25 μL of blood was obtained via the retro-orbital sinus and added to 100 μL of 0.025% heparinized-saline in Denville Scientific microtubes. The tubes were spun at the highest setting in a Beckman Microfuge 12 for 2 minutes. Plasma was collected for plasma glucose and triglyceride determination. The mice were then sacrificed by decapitation and ˜1 ml of blood was collected in Becton-Dickinson Microtainer brand plasma separator tubes with lithium heparin. The tubes were spun in a Beckman Microfuge 12 at the maximum setting for five minutes. Plasma was collected in 1.5 ml Eppendorf tubes and snap frozen in liquid nitrogen. Plasma samples were stored at −80° C. until analyzed.
(§5) Plasma glucose and triglycerides were measured using the Alcyon Clinical Chemistry Analyzer (Abbott Laboratories, Abbott Park, Ill.) using kits supplied by Abbott. Plasma cGMP was measured using the Biotrak enzyme-immunoassay system by Amersham (Piscataway, N.J.). Via a similar technique the plasma insulin can be assessed by the Mercodia ELISA Insulin kit by ALPCO (Uppsala, Sweden). All assays were conducted according to instructions provided by the manufacturers.
(§6) Comparisons between drug treatments and appropriate vehicles were done by Student's t-test.

ob/ob mice [2] = test: Plasma glucose and triglyceride levels in ob/ob mice, compound administered in the drinking water, 5 day study; format: in vivo; conditions: for Plasma Triglyceride Level: day 5, mean ± SEM; for Changes in Plasma Glucose Concentrations: over 5 day period, mean ± SEM
Method: as §1, §2, §3, §4, §5, §6

[3] = test system: non-diabetic subjects with the insulin resistance syndrome; test: Clinical Trial Data 1: 28-day clinical trial with sildenafil, serum triglyceride levels; format: in vivo, human; conditions: for Fall in serum triglycerides from baseline / Fall in serum triglyceride levels: 28 days; for Fall in serum triglyceride levels: non-diabetic subjects with IRS, preliminary data
Method: In a 28-day clinical trial with sildenafil, serum triglyceride levels were obtained before and at the end of dosing from non-diabetic subjects. Doses included in the study were 10 mg, 25 mg and […] of sildenafil or placebo, dosed once daily. These subjects had the insulin resistance syndrome, as defined by the risk factors as defined hereinbefore. Data are presented in tables 5 and 6 below to illustrate that subjects had evidence of the insulin resistance syndrome. Coronary artery disease (CAD)/ischaemic heart disease (1HD) is one clinical end-point in subjects having the Insulin Resistance Syndrome. For this reason the presence of CAD/IHD was taken as evidence to support the existence of the Insulin Resistance Syndrome in patients with only one of the defined risk factors.

[4] = 10 mg once daily, baseline 255 mg/dl
[5] = 25 mg once daily, baseline 213 mg/dl
[6] = 50 mg once daily, baseline 191 mg/dl

SMILES: CCCOc1ccc(S(=O)(=O)N2CCN(CC)CC2)cc1-c1nc2c(CC)n(Cc3ccccn3)nc2c(=O)[nH]1 [PDE5 A, 3-ethyl-5-[5-(4-ethylpiperazin-1-ylsulphonyl)-2-n-propoxyphenyl]-2-(pyridin-2-yl)methyl-2,6-dihydro-7H-pyrazolo[4,3-d]pyrimidin-7-one]
- Changes in Plasma Glucose Concentrations (ob/ob mice [1]; 10 mg/kg oral gavage twice a day): -115 ± 34 mg/dL
- Plasma Triglyceride Level (ob/ob mice [1]; 10 mg/kg oral gavage): 163 ± 10 mg/dL
- Changes in Plasma Glucose Concentrations (ob/ob mice [1]; 50 mg/kg oral gavage twice a day): -105 ± 25 mg/dL

SMILES: CCCc1nn(C)c2c(=O)[nH]c(-c3cc(C(=O)CN4CCOCC4)ccc3OCC)nc12 [PDE5 B, 5-(2-ethoxy-5-morpholinoacetylphenyl)-1-methyl-3-n-propyl-1,6-dihydro-7H-pyrazolo[4,3-d]pyrimidin-7-one]
- Changes in Plasma Glucose Concentrations (ob/ob mice [1]; 25 mg/kg oral gavage twice a day): -97 ± 32 mg/dL
- Plasma Triglyceride Level (ob/ob mice [1]; 25 mg/kg oral gavage): 143 ± 7^ mg/dl

SMILES: CCCc1nn(C)c2c(=O)[nH]c(-c3cc(S(=O)(=O)N4CCN(C)CC4)ccc3OCC)nc12 [PDE5 C, 5-[2-ethoxy-5-(4-methyl-1-piperazinylsulphonyl)phenyl]-1-methyl-3-n-propyl-1,6-dihydro-7H-pyrazolo[4,3-d]pyrimidin-7-one]
- Plasma Triglyceride Level (ob/ob mice [2]; 9 mg/kg in the drinking water): 163 ± 14 mg/dL
- Changes in Plasma Glucose Concentrations (ob/ob mice [2]; 9 mg/kg in the drinking water): -27 ± 34 mg/dL
- Plasma Triglyceride Level (ob/ob mice [2]; 22 mg/kg in the drinking water): 212 ± 20 mg/dL
- Changes in Plasma Glucose Concentrations (ob/ob mice [2]; 22 mg/kg in the drinking water): -15 ± 27 mg/dL
- Plasma Triglyceride Level (ob/ob mice [2]; 45 mg/kg in the drinking water): 151 ± 10 mg/dL
- Changes in Plasma Glucose Concentrations (ob/ob mice [2]; 45 mg/kg in the drinking water): −36 ± 22^ mg/dl
- Fall in serum triglycerides from baseline [3, 4]: about 40%
- Fall in serum triglyceride levels [3, 4]: 100.3 mg/dL
- Fall in serum triglycerides from baseline [3, 5]: ~31%
- Fall in serum triglyceride levels [3, 5]: 67.3 mg/dL
- Fall in serum triglycerides from baseline [3, 6]: ~12%
- Fall in serum triglyceride levels [3, 6]: 23.9 mg/dL
- Reduction of serum triglycerides compared to placebo ([3]; sildenafil group vs placebo, p=0.0457): statistically significantly different compared to placebo
- HDL compared to placebo ([3]; sildenafil group vs placebo, p=0.0539): trend
